Measurements as given in US20240002332A1, “Small Molecule Inhibitors of SARS-CoV-2 Infections” (priority 2020, published 2024).
Values joined by “and” are separate entries in the source; they are usually repeats but may differ in a detail not shown here. Equal values may be shown once.

Legend:
[1] = Rat liver microsomal (RLM) stability; settings: rat, microsomes
[2] = Pharmacokinetics in male hamsters, plasma and lung, IV 3 mg/kg or PO 30 mg/kg; settings: for Kp at 0.083 h / Kp at 4 h / Kp at 2 h / Kp at 8 h / Kp at 0.5 h / Kp at 1 h / Kp at […]: Ratio (Lung/Plasma)
Procedure: Compound P3 was administered intravenously (3 mg/kg dosing in 20% HP-β-CD in water) or orally (30 mg/kg dosing in 20% HP-β-CD in water).

[3] = Compound P3 IV 3 mg/kg, 0.083 h, individual animals, 3 mg/kg
[4] = Compound P3 IV 3 mg/kg, 4 h, individual animals, 3 mg/kg
[5] = Compound P3 IV 3 mg/kg, 8 h, individual animals, 3 mg/kg
[6] = Compound P3 IV 3 mg/kg, 24 h, individual animals, 3 mg/kg
[7] = Compound P3 PO 30 mg/kg, 0.5 h, individual animals, 30 mg/kg
[8] = Compound P3 PO 30 mg/kg, 1 h, individual animals, 30 mg/kg
[9] = Compound P3 PO 30 mg/kg, 2 h, individual animals, 30 mg/kg
[10] = Compound P3 PO 30 mg/kg, 4 h, individual animals, 30 mg/kg
[11] = Compound P3 PO 30 mg/kg, 8 h, individual animals, 30 mg/kg
[12] = Compound P3 intravenously or orally

## O=C(Nc1ccc([N+](=O)[O-])cc1Cl)c1cc(Cl)ccc1OC(=O)N1CCNCC1 [Compound P3, 4-chloro-2-((2-chloro-4-nitrophenyl)carbamoyl)phenyl piperazine-1-carboxylate]
[1]
  half-life: > 30 min
[2]; [3]
  Lung: 15360 ng/g and 23120 ng/g
  Ratio (Lung/Plasma): 36.0 and 31.0
[2]; [4]
  Lung: 1436 ng/g and 2904 ng/g and 1800 ng/g
  Ratio (Lung/Plasma): 111 and 59.4
[2]; [5]
  Lung: 263 ng/g and 275 ng/g
  Ratio (Lung/Plasma): 45.3 and 76.3 and 109
[2]; Compound P3 IV 3 mg/kg, 24 h, individual animals
  plasma concentration: BLOQ
[2]; [6]
  Lung: 8.44 ng/g and 3.59 ng/g
  lung concentration, Conc. (ng/mL): BLOQ
[2]; [7]
  Lung: 113200 ng/g and 72400 ng/g and 33400 ng/g
  Ratio (Lung/Plasma): 53.2 and 59.7
[2]; [8]
  Lung: 82400 ng/g and 105600 ng/g
  Ratio (Lung/Plasma): 69.2 and 130
[2]; [9]
  Lung: 102000 ng/g and 74400 ng/g
  Ratio (Lung/Plasma): 96.2 and 108
[2]; [10]
  Lung: 48800 ng/g and 65200 ng/g
  Ratio (Lung/Plasma): 215 and 97.6 and 73.2
[2]; [11]
  Lung: 6800 ng/g and 2928 ng/g and 7080 ng/g
  Ratio (Lung/Plasma): 191 and 311
[2]; Compound P3 PO 30 mg/kg, 24 h, individual animals
  plasma concentration: BLOQ
[2]; Compound P3 PO 30 mg/kg, 24 h, individual animals, 30 mg/kg
  Lung: 38.2 ng/g and 22.6 ng/g and 11.1 ng/g
[2]; [12]
  amount of active metabolite in lung tissue relative to plasma concentration: significantly higher amount of active metabolite in lung tissue
  overall concentration of active metabolite: provided a higher overall concentration of active metabolite
[2]; male, hamster, in vivo, iv, 3 mg/kg, Lung (ng/g), Compound P3 IV 3 mg/kg, 0.083 h, individual animals
  concentration at 0.083 h: 27400 ng/g
[2]; male, hamster, in vivo, iv, 3 mg/kg, Lung (ng/g), Compound P3 IV 3 mg/kg, 8 h, individual animals
  concentration at 8 h: 270 ng/g
[2]; male, hamster, in vivo, iv, 3 mg/kg, Compound P3 IV 3 mg/kg, 0.083 h, individual animals
  Kp at 0.083 h: 34.1
[2]; male, hamster, in vivo, iv, 3 mg/kg, Compound P3 IV 3 mg/kg, 4 h, individual animals
  Kp at 4 h: 68.4
[2]; male, hamster, in vivo, iv, 3 mg/kg, Mean, Compound P3 IV 3 mg/kg, 0.083 h
  Kp at 0.083 h: 33.7
[2]; male, hamster, in vivo, iv, 3 mg/kg, Mean, Compound P3 IV 3 mg/kg, 2 h
  Kp at 2 h: 81
[2]; male, hamster, in vivo, iv, 3 mg/kg, Mean, Compound P3 IV 3 mg/kg, 4 h
  Kp at 4 h: 80
[2]; male, hamster, in vivo, iv, 3 mg/kg, Mean, Compound P3 IV 3 mg/kg, 8 h
  Kp at 8 h: 77
[2]; male, hamster, in vivo, po, 30 mg/kg, Lung (ng/g), Compound P3 PO 30 mg/kg, 1 h, individual animals
  concentration at 1 h: 106000 ng/g
[2]; male, hamster, in vivo, po, 30 mg/kg, Lung (ng/g), Compound P3 PO 30 mg/kg, 2 h, individual animals
  concentration at 2 h: 67600 ng/g
[2]; male, hamster, in vivo, po, 30 mg/kg, Lung (ng/g), Compound P3 PO 30 mg/kg, 4 h, individual animals
  concentration at 4 h: 65600 ng/g
[2]; male, hamster, in vivo, po, 30 mg/kg, Compound P3 PO 30 mg/kg, 0.5 h, individual animals
  Kp at 0.5 h: 89.1
[2]; male, hamster, in vivo, po, 30 mg/kg, Compound P3 PO 30 mg/kg, 1 h, individual animals
  Kp at 1 h: 98.1
[2]; male, hamster, in vivo, po, 30 mg/kg, Compound P3 PO 30 mg/kg, 2 h, individual animals
  Kp at 2 h: 88.6
[2]; male, hamster, in vivo, po, 30 mg/kg, Compound P3 PO 30 mg/kg, 8 h, individual animals
  Kp at 8 h: 194
[2]; male, hamster, in vivo, po, 30 mg/kg, Compound P3 PO 30 mg/kg, individual animals
  Kp at […]: 34.8
[2]; male, hamster, in vivo, po, 30 mg/kg, Mean, Compound P3 PO 30 mg/kg, 0.5 h
  Kp at 0.5 h: 67.4
[2]; male, hamster, in vivo, po, 30 mg/kg, Mean, Compound P3 PO 30 mg/kg, 1 h
  Kp at 1 h: 99
[2]; male, hamster, in vivo, po, 30 mg/kg, Mean, Compound P3 PO 30 mg/kg, 2 h
  Kp at 2 h: 98
[2]; male, hamster, in vivo, po, 30 mg/kg, Mean, Compound P3 PO 30 mg/kg, 4 h
  Kp at 4 h: 129
[2]; male, hamster, in vivo, po, 30 mg/kg, Mean, Compound P3 PO 30 mg/kg, 8 h
  Kp at 8 h: 232
[2]; male, hamster, in vivo, po, 30 mg/kg, Mean, Compound P3 PO 30 mg/kg
  Kp at […]: 32.3
